Reference: US20230157283A1, “COMPOSITIONS AND METHODS FOR INHIBITING A FUNGAL PATHOGEN” (Tu Biomics, Inc., priority 2020, published 2023)

Assays:
Sclerotium cepivorum = experiment: Example 1: in vitro growth on agar plates containing organic acids; type: cell-based; set-up: Sclerotium Treated (in vitro growth, mean±SE): unit not given here; conditions: for Sclerotium Treated (in vitro growth, mean±SE): n=4 plates
Description: (§1) In FIG. 1, n.s. indicates “not significant”, ppm indicates “parts per million”; L and (S) indicate levorotatory and sinister rotatory, respectively, and asterisks are used to indicate degrees of statistical significance according to standard conventions. 2-fold concentrated compositions of lactate and acetate were diluted 1:1 with a deionized water + agar solution to prepare agar plates
(§2) In a first round of experiments, the effect of acetate, and dextrorotary (d), levorotary (1), and racemic mixtures of enantiomers of lactate alone, or in combination with acetate was evaluated on the growth of Sclerotium cepivorum and Botrytis cinera (Tables 1A and 1B).
(§3) The effects of higher concentrations of acetate and lactate L (S) on growth was evaluated (Tables 2A and 2B).

Botrytis cinerea = experiment: as above; type: cell-based; set-up: Botrytis Treated (in vitro growth, mean±SE): unit not given here; conditions: for Botrytis Treated (in vitro growth, mean±SE): n=4 plates
Description: as §1, §2, §3

[1] = 175 ppm, 7 days after inoculation
[2] = 175 ppm, 7 days, negative = inhibition, n.s./bracketed = not significant
[3] = 350 ppm, 7 days after inoculation
[4] = 350 ppm, 7 days, negative = inhibition, n.s./bracketed = not significant
[5] = first round, concentrations of Tables 1A and 1B
[6] = 175 ppm, 7 days, n.s./bracketed = not significant
[7] = 350 ppm, 7 days, n.s./bracketed = not significant
[8] = 600 ppm, 7 days, second round (higher concentrations)
[9] = 600 ppm, 7 days, second round, n.s./bracketed = not significant
[10] = higher concentrations, Tables 2A and 2B
[11] = 200 ppm, 7 days after inoculation
[12] = 400 ppm, 7 days after inoculation

Row | Structure (SMILES) | Sclerotium Treated (in vitro growth, mean±SE) (Sclerotium cepivorum; [1]) | % Efficacy (percentage of mean growth in control plates) (Sclerotium cepivorum; [2]) | Sclerotium Treated (in vitro growth, mean±SE) (Sclerotium cepivorum; [3]) | % Efficacy (percentage of mean growth in control plates) (Sclerotium cepivorum; [4]) | effect on growth of S. cepivorum (in words) (Sclerotium cepivorum; [5]) | Botrytis Treated (in vitro growth, mean±SE) (Botrytis cinerea; [1]) | % Efficacy (percentage of mean growth in control plates) (Botrytis cinerea; [6]) | Botrytis Treated (in vitro growth, mean±SE) (Botrytis cinerea; [3]) | % Efficacy (percentage of mean growth in control plates) (Botrytis cinerea; [7]) | Sclerotium Treated (in vitro growth, mean±SE) (Sclerotium cepivorum; [8]) | % Efficacy (percentage of mean growth in control plates) (Sclerotium cepivorum; [9]) | effect on growth of S. cepivorum (in words) (Sclerotium cepivorum; [10]) | other results
1 | C[C@@H](O)C(=O)O [Lactate D (R), D-lactic acid, reference compound] | 14.09 ± 5.75 | n.s. | 10.68 ± 3.19 | n.s. | appeared to act as a carbon source | 23.42 ± 1.23 | 49% | 23.82 ± 2.65 | [35] % |  |  |  | 
2 | C[C@H](O)C(=O)O [Lactate L (S), L-lactic acid] | 5.73 ± 1.72 | [-43] % | 5.17 ± 1.85 | [-46] % | inhibited growth | 23.59 ± 2.66 | [38] % | 27.71 ± 4.97 | [71] % | 20.50 ± 4.10 | n.s.[18] % | not effective | % Efficacy (percentage of mean growth in control plates) (Sclerotium cepivorum; 450 ppm, 7 days, second round, n.s./bracketed = not significant): n.s.[-7] %; Sclerotium Treated (in vitro growth, mean±SE) (Sclerotium cepivorum; 450 ppm, 7 days, second round): 16.08 ± 3.55; effect on growth of S. cepivorum (in words) (Sclerotium cepivorum; summary of FIG. 1): inhibited growth of S. cepivorum at lower concentrations, but served as a carbon source at higher concentrations
3 | CC(=O)O [Acetate, acetic acid] |  |  |  |  | significantly inhibited growth |  |  |  |  | 2.41 ± 0.57 | -86% | increased with acetate concentration at all concentrations evaluated | Sclerotium Treated (in vitro growth, mean±SE) (Sclerotium cepivorum; [11]): 3.63 ± 2.30; % Efficacy (percentage of mean growth in control plates) (Sclerotium cepivorum; 200 ppm, 7 days, negative = inhibition, n.s./bracketed = not significant): n.s. [23] %; Sclerotium Treated (in vitro growth, mean±SE) (Sclerotium cepivorum; [12]): 2.62 ± 1.85; % Efficacy (percentage of mean growth in control plates) (Sclerotium cepivorum; 400 ppm, 7 days, negative = inhibition, n.s./bracketed = not significant): n.s. [-39] %; % Efficacy (percentage of mean growth in control plates) (Sclerotium cepivorum; 800 ppm, 7 days, second round): -97%; Sclerotium Treated (in vitro growth, mean±SE) (Sclerotium cepivorum; 800 ppm, 7 days, second round): 0.51 ± 0.20; Botrytis Treated (in vitro growth, mean±SE) (Botrytis cinerea; [11]): 16.19 ± 1.09; % Efficacy (percentage of mean growth in control plates) (Botrytis cinerea; 200 ppm, 7 days, negative = inhibition): -33%; Botrytis Treated (in vitro growth, mean±SE) (Botrytis cinerea; [12]): 12.37 ± 0.79; % Efficacy (percentage of mean growth in control plates) (Botrytis cinerea; 400 ppm, 7 days, negative = inhibition): -49%; % Efficacy (percentage of mean growth in control plates) (Botrytis cinerea; [9]): n.s.[11] %; Botrytis Treated (in vitro growth, mean±SE) (Botrytis cinerea; 600 ppm, 7 days, second round): 22.25 ± 4.12; % Efficacy (percentage of mean growth in control plates) (Botrytis cinerea; 800 ppm, 7 days, second round, n.s./bracketed = not significant): n.s.[13] %; Botrytis Treated (in vitro growth, mean±SE) (Botrytis cinerea; 800 ppm, 7 days, second round): 22.73 ± 4.69; Botrytis Treated (in vitro growth, mean±SE) (Botrytis cinerea; 1000 ppm, 7 days, second round): 29.75 ± 3.76; % Efficacy (percentage of mean growth in control plates) (Botrytis cinerea; 1000 ppm, 7 days, second round, positive = more growth): 48%; effect on growth of B. cinerea (in words) (Botrytis cinerea; [5]): significantly inhibited growth; effect on growth of B. cinerea (in words) (Botrytis cinerea; summary of FIG. 1): inhibited growth of B. cinera at lower concentrations, but served as a carbon source at higher concentrations
4 | CC(O)C(=O)O (racemic) [Lactate DL (RS racemic mix), reference compound] | 2.06 ± 1.18 | -72% | 6.71 ± 2.90 | n.s. | inhibited growth | 16.81 ± 1.23 | n.s. | 26.15 ± 3.37 | n.s. |  |  |  | 
